From ChEMBL document CHEMBL5579876, “Small Molecules Blocking the Assembly of TCAB1 and Telomerase Complexes: Lead Discovery and Biological Activity” (ACS Med Chem Lett, 2024)
Calls of active or inactive are those of the source. The rule behind the calls is not given here.

Experiments:
[1] = biological target: Telomerase reverse transcriptase (Homo sapiens, UniProt O14746); test: Inhibition of telomerase activity in human HL-60 cells incubated for 96 hrs by TRAP-PCR assay; type: cell-based
[2] = biological target: Telomerase Cajal body protein 1 (Homo sapiens) (UniProt Q9BUR4); test: Thermal stabilization of TCAB1 in human HL-60 cells at 10 uM incubated for 30 mins by CETSA; type: cell-based
[3] = biological target: Telomerase Cajal body protein 1 (Homo sapiens) (UniProt Q9BUR4); test: Inhibition of hTERT binding to TCAB1 in human HL-60 cells at 10 uM incubated for 48 hrs by Co-IP analysis; type: cell-based
[4] = Cytotoxicity against human GES1 cells assessed as inhibition of cell growth measured after 96 hrs by CCK-8 assay; type: toxicity, cell-based
[5] = system: HL-60; test: cells; settings: Homo sapiens, HL-60, 96 h
Description: Antiproliferative activity against human HL-60 cells assessed as inhibition of cell growth measured after 96 hrs by CCK-8 assay

[6] = system: CT26; test: cells; settings: Mus musculus, CT26, 96 h
Description: Antiproliferative activity against mouse CT26 cells assessed as inhibition of cell growth measured after 96 hrs by CCK-8 assay

Sequence of Telomerase Cajal body protein 1 (Homo sapiens) (Q9BUR4 whole entry): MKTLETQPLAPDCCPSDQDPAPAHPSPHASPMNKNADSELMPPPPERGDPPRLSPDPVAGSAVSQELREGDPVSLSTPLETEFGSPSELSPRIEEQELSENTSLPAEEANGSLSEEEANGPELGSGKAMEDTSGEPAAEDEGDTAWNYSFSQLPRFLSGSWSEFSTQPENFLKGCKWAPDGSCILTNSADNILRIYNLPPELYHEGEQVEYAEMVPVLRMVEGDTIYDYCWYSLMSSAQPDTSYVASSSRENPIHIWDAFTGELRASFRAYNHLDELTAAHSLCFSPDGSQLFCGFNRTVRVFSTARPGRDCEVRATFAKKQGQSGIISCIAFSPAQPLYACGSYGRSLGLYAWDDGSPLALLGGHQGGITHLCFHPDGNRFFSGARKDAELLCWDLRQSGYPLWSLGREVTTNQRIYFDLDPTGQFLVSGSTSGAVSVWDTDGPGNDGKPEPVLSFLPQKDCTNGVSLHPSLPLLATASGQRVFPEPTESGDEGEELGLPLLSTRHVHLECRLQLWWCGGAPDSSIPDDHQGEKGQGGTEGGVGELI
Sequence of Telomerase reverse transcriptase (O14746 whole entry): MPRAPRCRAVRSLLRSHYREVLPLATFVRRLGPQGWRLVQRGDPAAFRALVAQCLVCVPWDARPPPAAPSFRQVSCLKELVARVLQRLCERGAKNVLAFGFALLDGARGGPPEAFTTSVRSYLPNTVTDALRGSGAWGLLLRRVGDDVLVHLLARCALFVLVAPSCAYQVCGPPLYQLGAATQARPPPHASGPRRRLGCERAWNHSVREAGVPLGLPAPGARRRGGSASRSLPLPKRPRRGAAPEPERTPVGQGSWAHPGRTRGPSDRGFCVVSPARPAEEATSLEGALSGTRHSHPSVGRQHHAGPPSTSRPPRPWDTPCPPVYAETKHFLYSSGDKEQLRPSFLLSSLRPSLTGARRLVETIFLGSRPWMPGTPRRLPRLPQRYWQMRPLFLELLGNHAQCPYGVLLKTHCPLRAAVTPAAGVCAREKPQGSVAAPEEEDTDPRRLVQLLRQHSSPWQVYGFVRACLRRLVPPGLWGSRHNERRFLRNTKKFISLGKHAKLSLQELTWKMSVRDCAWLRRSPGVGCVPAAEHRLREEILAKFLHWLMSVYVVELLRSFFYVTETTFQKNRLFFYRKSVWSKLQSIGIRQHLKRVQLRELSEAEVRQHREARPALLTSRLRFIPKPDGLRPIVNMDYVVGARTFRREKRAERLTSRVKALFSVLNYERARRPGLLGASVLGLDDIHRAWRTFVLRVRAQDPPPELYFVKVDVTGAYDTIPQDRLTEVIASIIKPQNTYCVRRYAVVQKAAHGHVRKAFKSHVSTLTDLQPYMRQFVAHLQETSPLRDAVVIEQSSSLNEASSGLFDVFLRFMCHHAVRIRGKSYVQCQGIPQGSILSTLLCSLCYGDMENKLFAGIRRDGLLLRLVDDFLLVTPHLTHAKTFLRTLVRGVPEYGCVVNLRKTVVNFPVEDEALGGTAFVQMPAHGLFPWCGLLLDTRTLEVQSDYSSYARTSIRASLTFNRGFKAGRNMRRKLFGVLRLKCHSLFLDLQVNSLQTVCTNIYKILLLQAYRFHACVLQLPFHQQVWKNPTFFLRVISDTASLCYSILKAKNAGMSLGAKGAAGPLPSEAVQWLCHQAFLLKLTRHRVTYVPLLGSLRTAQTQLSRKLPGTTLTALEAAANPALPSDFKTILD

IC50 [1] [µM] | SMILES | other results
> 10 | CC(=O)c1cccc(/N=c2\scc(-c3ccc(S(=O)(=O)N4CCOCC4)cc3)n2CCO)c1 | 
> 10 | COc1ccc(C2C(C(=O)Nc3ccc(Cl)cc3)=C(C)N=C3N=C(CCCO)NN32)c(OC)c1 (configuration not stated) | 
> 10 | CCOc1cc(C2NC(=O)NC(C)=C2C(=O)OCc2ccc3c(c2)OCO3)ccc1O (configuration not stated) | 
> 10 | CCOC(=O)C1=C(C)N=c2s/c(=C\c3ccc(O)c(OC)c3)c(=O)n2C1c1ccc(OCC)cc1 (configuration not stated) | 
> 10 | CCOc1cc(C2NC(=O)N(C)C(C)=C2C(=O)OCC2CCCO2)cc(Cl)c1O (configuration not stated) | 
> 10 | CCOc1cc(/C=C2/C(=N)N3N=C(C)SC3=NC2=O)ccc1OCCOc1cccc(OC)c1 | 
> 10 | CCOc1cc(C2C(C#N)=C(N)Oc3n[nH]c(C(C)(C)C)c32)ccc1OCCN1CCOCC1 (configuration not stated) | 

More lines, now with the values behind:

SMILES | IC50 [1] [µM] | other results
CCOC(=O)c1cccc(NC(=O)CSc2nnc(-c3cccnc3)n2-c2ccc(OC)cc2)c1 | > 10 | 
O=C(C1=C(O)C(=O)N(CCOCCO)C1c1cccc(O)c1)c1cccs1 (configuration not stated) | > 10 | 
Cc1ccc2nc(NCCO)c(/C=C3\SC(=S)N(Cc4ccc5c(c4)OCO5)C3=O)c(=O)n2c1 | > 10 | 
C#CCOc1ccc(/C=C2\SC(Nc3ccc(OCC)cc3)=C(C(=O)OCC)C2=O)cc1OC |  | Activity [2]: Active; inhibition [3]: inactive; IC50 at 96 h [4]: > 1000 µM; IC50 [5]: > 200 µM; IC50 [6]: 46.3 µM
O=C(C1=C(O)C(=O)N(Cc2ccco2)C1c1cccc(O)c1)c1ccc2c(c1)OCCO2 (configuration not stated) |  | Activity [2]: Active; inhibition [3]: inactive; IC50 at 96 h [4]: > 1000 µM; IC50 [5]: > 200 µM; IC50 [6]: > 200 µM
CC(=O)Nc1ccc(/C=C2\C=C(C(O)c3ccc(NC(C)=O)cc3)c3ccccc32)cc1 (configuration not stated) | > 10 | 
CCn1c(CN2NC(C)=CCC2=O)nnc1SCC(=O)Nc1ccc(S(N)(=O)=O)cc1 | > 10 | 
COc1ccc(-c2ccc(S(=O)(=O)NCCO)cc2)c(S(=O)(=O)NCCO)c1 | > 10 | 
CCC(CO)NS(=O)(=O)c1cccc2c(S(=O)(=O)NC(CC)CO)cccc12 (configuration not stated) | > 10 | 
C/C(=C\C(=O)Nc1ccccc1C(=O)O)c1ccc2ccccc2c1 | 0.091 | IC50 at 96 h [4]: 206 µM; IC50 [5]: 47.8 µM; IC50 [6]: 42.9 µM
COc1ccc(C(=O)C2=C(O)C(=O)N(CCO)C2c2ccc(C)cc2)cc1 (configuration not stated) | > 10 | 
COC(=O)C1=C(C)N(CC2CCCO2)C(=O)/C1=C\c1ccc(OCC(=O)NC(C)C)cc1 (configuration not stated) |  | Activity [2]: Active; inhibition [3]: inactive; IC50 at 96 h [4]: > 1000 µM; IC50 [5]: 156 µM; IC50 [6]: 26.9 µM
O=C(CCS(=O)(=O)c1nc(-c2ccccc2)cc(C(F)(F)F)n1)Nc1cccnc1Cl | > 10 | 
CCOc1ccc(N2C(=O)CC(N(CCc3ccc(S(N)(=O)=O)cc3)C(C)=O)C2=O)cc1 (configuration not stated) | > 10 | 
CCCc1cc(=O)oc2cc(OCC(=O)Nc3ccc(S(N)(=O)=O)cc3)c(Cl)cc12 | > 10 | 
